Target: T1, human LXRβ (Homo sapiens, UniProt P55055)
T1 construct: expressed in transfected cells; host or cells: HEK293 cells (ATCC CRL-1573), transient transfection with pFA-hLXRβ/GAL4 and pUAS
T1 sequence (P55055 222-460 limits assumed): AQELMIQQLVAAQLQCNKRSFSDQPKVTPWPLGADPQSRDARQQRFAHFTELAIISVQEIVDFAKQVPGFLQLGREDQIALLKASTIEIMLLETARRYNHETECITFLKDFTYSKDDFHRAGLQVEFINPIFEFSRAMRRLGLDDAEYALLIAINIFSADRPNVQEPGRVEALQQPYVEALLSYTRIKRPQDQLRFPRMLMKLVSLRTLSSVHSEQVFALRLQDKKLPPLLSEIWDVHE
Experiment: Assay for Transcriptional Activity of LXRβ (GAL4-hLXRβ LBD luciferase reporter, transient transfection)
Type: cell-based
Conditions: HEK293 cells transfected with pFA-hLXRβ/GAL4 and pUAS, 24 hours; for Emax: fold value in comparison with the control (DMSO-treated group); for EC50: increase of transcriptional activity of LXRβ, average of three independent tests
In short: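 EC50 values, averaged over three independent runs, come from a four-parameter fit of 9-point half-log curves spanning 0.01–50 μM. Luciferase output was read in lysed HEK293 cells 24 h after dosing at 37 °C, following transient transfection with a GAL4-human LXRβ LBD fusion plus GAL4-responsive reporter.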

Structure (SMILES)	Emax [fold]	EC50 [µM]
CC(C)(C)OC(=O)N1CC=C(c2cccc(N3N=C(C(O)(C(F)(F)F)C(F)(F)F)CC3c3ccccc3Cl)c2)CC1 (stereo not shown) [Example 433, 5-(2-chloro-phenyl)-1-[3-(1-BOC-1,2,3,6-tetrahydropyridin-4-yl)-phenyl]-3-[di-(trifluoromethyl)-hydroxy-methyl]-4,5-dihydro-1H-pyrazole]	13	6.6
CSc1cccc(-c2ccc(C3CC(C(O)(C(F)(F)F)C(F)(F)F)=NN3c3ccc(F)cc3F)cc2)c1 (stereo not shown) [Example 369, 1-(2,4-difluoro-phenyl)-5-(3′-methylsulfanyl-biphenyl-4-yl)-3-[di-(trifluoromethyl)-hydroxy-methyl]-4,5-dihydro-1H-pyrazole]	28	0.666
CS(=O)(=O)c1ccc(-c2cccc(C3CC(C(F)(F)C(F)(F)F)=NN3c3ccc(F)cc3F)c2)cc1C#N (stereo not shown) [Example 70, 5-[3′-cyano-4′-(methanesulfonyl)-biphenyl-3-yl]-1-(2,4-difluoro-phenyl)-3-pentafluoroethyl-4,5-dihydro-1H-pyrazole]	62	0.466
CN(C)S(=O)(=O)N1CCN(c2ccc(C3CC(C(O)(C(F)(F)F)C(F)(F)F)=NN3c3ccccc3Cl)cc2)CC1 (stereo not shown) [Example 316, 1-(2-chloro-phenyl)-5-[4-(4-dimethylsulfamoyl-piperazin-1-yl)-phenyl]-3-[di-(trifluoromethyl)-hydroxy-methyl]-4,5-dihydro-1H-pyrazole]	43	0.706
Fc1ccc(N2N=C(C(F)(F)C(F)(F)F)CC2c2cccc(-c3ccccc3)c2)c(F)c1 (stereo not shown) [Example 94, 5-biphenyl-3-yl-1-(2,4-difluoro-phenyl)-3-pentafluoroethyl-4,5-dihydro-1H-pyrazole]	27	19
CN(C)S(=O)(=O)N1CC=C(c2ccc(C3CC(C(O)(C(F)(F)F)C(F)(F)F)=NN3c3ccccc3Cl)cc2)CC1 (stereo not shown) [Example 305, 1-(2-chloro-phenyl)-5-{4-[1-dimethylsulfamoyl-1,2,3,6-tetrahydropyridin-4-yl]-phenyl}-3-[di-(trifluoromethyl)-hydroxy-methyl]-4,5-dihydro-1H-pyrazole]	66	0.304
CN(CCO)S(=O)(=O)c1ccc(-c2ccc(C3CC(C(O)(C(F)(F)F)C(F)(F)F)=NN3c3ccc(F)cc3F)cc2)cc1 (stereo not shown) [Example 386, 1-(2,4-difluoro-phenyl)-5-{4′-[(2-hydroxy-ethyl)-methyl-sulfamoyl]-biphenyl-4-yl}-3-[di-(trifluoromethyl)-hydroxy-methyl]-4,5-dihydro-1H-pyrazole]	35	0.17
OC(C1=NN(c2ccc(F)cc2F)C(c2ccc(-c3ccc(-n4cnnn4)cc3)cc2)C1)(C(F)(F)F)C(F)(F)F (stereo not shown) [Example 373, 1-(2,4-difluoro-phenyl)-5-(4′-tetrazol-1-yl-biphenyl-4-yl)-3-[di-(trifluoromethyl)-hydroxy-methyl]-4,5-dihydro-1H-pyrazole]	39	0.551
CSc1cccc(-c2cccc(N3N=C(C(O)(C(F)(F)F)C(F)(F)F)CC3c3ccccc3Cl)c2)c1 (stereo not shown) [Example 431, 5-(2-chloro-phenyl)-1-[3′-(methylsulfanyl)-biphenyl-3-yl]-3-[di-(trifluoromethyl)-hydroxy-methyl]-4,5-dihydro-1H-pyrazole]	17	2.24
OC(C1=NN(c2ccc(F)cc2F)C(c2ccc(-c3ccc(C(F)(F)F)nc3)cc2)C1)(C(F)(F)F)C(F)(F)F (stereo not shown) [Example 377, 1-(2,4-difluoro-phenyl)-5-[4-(6-trifluoromethyl-pyridin-3-yl)-phenyl]-3-[di-(trifluoromethyl)-hydroxy-methyl]-4,5-dihydro-1H-pyrazole]	15	0.89
Fc1ccc(N2N=C(C(F)(F)C(F)(F)F)CC2c2cccc(-c3ccc(C(F)(F)F)nc3)c2)c(F)c1 (stereo not shown) [Example 72, 1-(2,4-difluoro-phenyl)-3-pentafluoroethyl-5-(3-(2-trifluoromethyl-pyridin-5-yl)-phenyl)-4,5-dihydro-1H-pyrazole]	9	15.2
CS(=O)(=O)c1c(F)cc(-c2ccc(C3CC(C(O)(C(F)(F)F)C(F)(F)F)=NN3c3ccc(F)cc3F)cc2)cc1F (stereo not shown) [Example 388, 1-(2,4-difluoro-phenyl)-5-(3′,5′-difluoro-4′-methanesulfonyl-biphenyl-4-yl)-3-[di-(trifluoromethyl)-hydroxy-methyl]-4,5-dihydro-1H-pyrazole]	25	0.06
COc1ccc(-c2ccc(C3CC(C(O)(C(F)(F)F)C(F)(F)F)=NN3c3ccc(F)cc3F)cc2)cn1 (stereo not shown) [Example 370, 1-(2,4-difluoro-phenyl)-5-(4-(6-methoxy-pyridin-3-yl)-phenyl)-3-[di-(trifluoromethyl)-hydroxy-methyl]-4,5-dihydro-1H-pyrazole]	36	0.821
CS(=O)(=O)c1ccc(-c2cncc(C3CC(C(F)(F)C(F)(F)F)=NN3c3ccc(F)cc3F)c2)cn1 (stereo not shown) [Example 166, 1-(2,4-difluoro-phenyl)-5-[3-(6-methanesulfonyl-pyridin-3-yl)-pyridin-5-yl]-3-pentafluoroethyl-4,5-dihydro-1H-pyrazole]	56	7.05
CSc1cccc(-c2ccc(C3CC(C(O)(C(F)(F)F)C(F)(F)F)=NN3c3ccccc3Cl)s2)c1 (stereo not shown) [Example 414, 1-(2-chloro-phenyl)-5-{5-[3-(methylsulfanyl)-phenyl]-thiophen-2-yl}-3-[di-(trifluoromethyl)-hydroxy-methyl]-4,5-dihydro-1H-pyrazole]	125	0.193
CS(=O)(=O)c1ccc(-c2ccc(C3CC(C(O)(C(F)(F)F)C(F)(F)F)=NN3c3ccc(F)cc3F)cc2)cc1C#N (stereo not shown) [Example 390, 1-(2,4-difluoro-phenyl)-5-(3′-cyano-4′-methanesulfonyl-biphenyl-4-yl)-3-[di-(trifluoromethyl)-hydroxy-methyl]-4,5-dihydro-1H-pyrazole]	55	0.318
CS(=O)(=O)c1ccc(-c2cccc(C3CC(C(F)(F)C(F)(F)F)=NN3c3ccc(Cl)cc3Cl)c2)cc1 (stereo not shown) [Example 41, 1-(2,4-dichloro-phenyl)-5-(4′-methanesulfonyl-biphenyl-3-yl)-3-pentafluoroethyl-4,5-dihydro-1H-pyrazole]	89	1.66
CN(CCCS(=O)(=O)c1ccc(-c2cccc(C3CC(C(F)(F)C(F)(F)F)=NN3c3ccc(F)cc3F)c2)cc1)C(=O)OC(C)(C)C (stereo not shown) [Example 86, 5-{4′-[3-(N-BOC-N-methyl-amino)-propane-1-sulfonyl]-biphenyl-3-yl}-1-(2,4-difluoro-phenyl)-3-pentafluoroethyl-4,5-dihydro-1H-pyrazole]	45	0.958
CS(=O)(=O)N1CC=C(c2ccnc(C3CC(C(F)(F)C(F)(F)F)=NN3c3ccc(F)cc3F)c2)CC1 (stereo not shown) [Example 180, 1-(2,4-difluoro-phenyl)-5-[4-(1-methanesulfonyl-1,2,3,6-tetrahydropyridin-4-yl)-pyridin-2-yl]-3-pentafluoroethyl-4,5-dihydro-1H-pyrazole]	118	0.513
COc1ccc(-c2ccc(C3CC(C(O)(C(F)(F)F)C(F)(F)F)=NN3c3ccccc3Cl)cc2F)cn1 (stereo not shown) [Example 368, 1-(2-chloro-phenyl)-5-[3-fluoro-4-(6-methoxy-pyridin-3-yl)-phenyl]-3-[di-(trifluoromethyl)-hydroxy-methyl]-4,5-dihydro-1H-pyrazole]	57	1.92

Source: US9376420B2 (YUHAN CORPORATION, priority 2012, dated 2016)
